Source: the supplement of paper PMC11451515

Tested on: P12-Ichikawa
Assay: cell viability relative to DMSO control; higher = less cytotoxic
Settings: 48 h
Summary of the method: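 Cells were incubated for 48 h at 37°C before CellTiter-Glo One luminescence was read. The cells were NOMO1 or SEM (500 cells/well) or P12-Ichikawa (1000 cells/well) leukemia cells, adapted for at least four passages in each medium and seeded in 1536-well plates (5 μl). Dosing used library compounds in DMSO applied by pin over 11 threefold points, 47 μM to 0.79 nM. Viability is the per-plate percentage of DMSO wells, with cell-free wells as background.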

[1] = HPLM + 10% dialyzed FBS, 0.000781 µM
[2] = HPLM + 10% dialyzed FBS, 0.00234 µM
[3] = HPLM + 10% dialyzed FBS, 0.00702 µM
[4] = HPLM + 10% dialyzed FBS, 0.0211 µM
[5] = HPLM + 10% dialyzed FBS, 0.0632 µM
[6] = HPLM + 10% dialyzed FBS, 0.19 µM
[7] = HPLM + 10% dialyzed FBS, 0.569 µM
[8] = HPLM + 10% dialyzed FBS, 1.71 µM
[9] = HPLM + 10% dialyzed FBS, 5.12 µM
[10] = HPLM + 10% dialyzed FBS, 15.4 µM
[11] = HPLM + 10% dialyzed FBS, 46.1 µM
[12] = RPMI 5 mM glucose + 10% FBS, 0.000781 µM
[13] = RPMI 5 mM glucose + 10% FBS, 0.00234 µM
[14] = RPMI 5 mM glucose + 10% FBS, 0.00702 µM
[15] = RPMI 5 mM glucose + 10% FBS, 0.0211 µM
[16] = RPMI 5 mM glucose + 10% FBS, 0.0632 µM
[17] = RPMI 5 mM glucose + 10% FBS, 0.19 µM
[18] = RPMI 5 mM glucose + 10% FBS, 0.569 µM
[19] = RPMI 5 mM glucose + 10% FBS, 1.71 µM
[20] = RPMI 5 mM glucose + 10% FBS, 5.12 µM
[21] = RPMI 5 mM glucose + 10% FBS, 15.4 µM
[22] = RPMI 5 mM glucose + 10% FBS, 46.1 µM
[23] = RPMI 5 mM glucose + 10% dialyzed FBS, 0.000781 µM
[24] = RPMI 5 mM glucose + 10% dialyzed FBS, 0.00234 µM
[25] = RPMI 5 mM glucose + 10% dialyzed FBS, 0.00702 µM
[26] = RPMI 5 mM glucose + 10% dialyzed FBS, 0.0211 µM
[27] = RPMI 5 mM glucose + 10% dialyzed FBS, 0.0632 µM
[28] = RPMI 5 mM glucose + 10% dialyzed FBS, 0.19 µM
[29] = RPMI 5 mM glucose + 10% dialyzed FBS, 0.569 µM
[30] = RPMI 5 mM glucose + 10% dialyzed FBS, 1.71 µM
[31] = RPMI 5 mM glucose + 10% dialyzed FBS, 5.12 µM
[32] = RPMI 5 mM glucose + 10% dialyzed FBS, 15.4 µM
[33] = RPMI 5 mM glucose + 10% dialyzed FBS, 46.1 µM

| Structure (SMILES) | cell viability [1] [%] | cell viability [2] [%] | cell viability [3] [%] | cell viability [4] [%] | cell viability [5] [%] | cell viability [6] [%] | cell viability [7] [%] | cell viability [8] [%] | cell viability [9] [%] | cell viability [10] [%] | cell viability [11] [%] | cell viability [12] [%] | cell viability [13] [%] | cell viability [14] [%] | cell viability [15] [%] | cell viability [16] [%] | cell viability [17] [%] | cell viability [18] [%] | cell viability [19] [%] | cell viability [20] [%] | cell viability [21] [%] | cell viability [22] [%] | cell viability [23] [%] | cell viability [24] [%] | cell viability [25] [%] | cell viability [26] [%] | cell viability [27] [%] | cell viability [28] [%] | cell viability [29] [%] | cell viability [30] [%] | cell viability [31] [%] | cell viability [32] [%] | cell viability [33] [%] |
| --- | --- | --- | --- | --- | --- | --- | --- | --- | --- | --- | --- | --- | --- | --- | --- | --- | --- | --- | --- | --- | --- | --- | --- | --- | --- | --- | --- | --- | --- | --- | --- | --- | --- |
| C=C[C@H]1CN2CC[C@H]1C[C@H]2[C@H](O)c1ccnc2ccc(OC)cc12 | 100 | 98.6 | 93.6 | 104 | 96.3 | 100 | 104 | 105 | 108 | 110 | 100 | 95.9 | 104 | 99.4 | 95.7 | 93.6 | 101 | 106 | 109 | 129 | 111 | 75.4 | 89.9 | 89 | 91.7 | 93.1 | 96.3 | 96.7 | 94.1 | 95.3 | 102 | 101 | 81 |
| OC1CCC(Nc2ncc3nc(Nc4c(F)cc(F)cc4F)n([C@@H]4CCOC4)c3n2)CC1 (stereo partly specified) | 111 | 114 | 115 | 117 | 119 | 126 | 127 | 124 | 120 | 117 | 114 | 113 | 123 | 114 | 119 | 127 | 122 | 134 | 127 | 120 | 118 | 123 | 111 | 117 | 114 | 120 | 117 | 117 | 127 | 119 | 126 | 121 | 114 |
| O=c1[nH]c2ccccc2n1C1CCN(Cc2ccc(-c3nc4cc5nc[nH]c5cc4nc3-c3ccccc3)cc2)CC1 | 109 | 125 | 116 | 125 | 117 | 132 | 115 | 102 | 105 | 109 | 115 | 111 | 102 | 110 | 111 | 115 | 114 | 106 | 85.4 | 104 | 109 | 106 | 121 | 114 | 114 | 121 | 114 | 110 | 105 | 91.1 | 103 | 96 | 107 |
| Cc1c(NC(=O)OC[C@@H]2COCCN2)cn2ncnc(Nc3ccc4c(cnn4Cc4cccc(F)c4)c3)c12 | 80 | 83.9 | 91.5 | 90 | 94.8 | 96.5 | 99.8 | 94.3 | 86.8 | 87.8 | 50.6 | 83 | 84.4 | 90.8 | 87.9 | 92.9 | 85.8 | 86 | 92.2 | 76.6 | 81.3 | 48.3 | 83.4 | 84.4 | 88.9 | 97.3 | 100 | 88.1 | 89.2 | 92.9 | 91.3 | 82.8 | 40.4 |
| N#Cc1c(NC(=O)c2cccc3ccccc23)sc2c1CCCC2 | 121 | 122 | 126 | 123 | 136 | 132 | 82.4 | 21.6 | 18.2 | 28.2 | 27.4 | – | – | – | – | – | – | – | – | – | – | – | – | – | – | – | – | – | – | – | – | – | – |
| Nc1ncnc2c1c(-c1cnc3[nH]ccc3c1)nn2C1CCCC1 | 117 | 121 | 112 | 111 | 103 | 106 | 95.7 | 81.3 | 71.2 | 52.2 | 28.7 | 122 | 118 | 122 | 117 | 106 | 96.5 | 90.1 | 63.5 | 53.7 | 40.3 | 26.2 | – | – | – | – | – | – | – | – | – | – | – |
| O=C(O)C1=NC(C(=O)O)CC(/C=C/N2c3cc(O)c(OC4OC(CO)C(O)C(O)C4O)cc3CC2C(=O)O)=C1 (stereo unspecified) | 104 | 107 | 104 | 96.9 | 98.5 | 104 | 106 | 102 | 96.8 | 98 | 98.4 | 97.2 | 110 | 106 | 99.1 | 95.8 | 89.9 | 90.8 | 106 | 96.5 | 96.8 | 97.4 | 101 | 99.2 | 106 | 102 | 106 | 104 | 93.2 | 99.5 | 100 | 91.9 | 90.9 |
| Nc1nc(N)c2nc(CNc3ccc(C(=O)NC(CCC(=O)O)C(=O)O)cc3)cnc2n1 (stereo unspecified) | 103 | 111 | 110 | 114 | 59.2 | 47.7 | 31 | 31.8 | 44 | 39.6 | 29.7 | 103 | 103 | 103 | 123 | 71.2 | 37.9 | 46.6 | 47 | 38.5 | 51.2 | 61 | 105 | 95.5 | 105 | 112 | 86 | 28.1 | 25.8 | 24 | 25.9 | 26.2 | 26.2 |
